US12134610B2, “Somatostatin subtype-2 receptor (SST2R) targeted therapeutics and uses thereof” (priority 2022, dated 2024)
Read-outs that look alike come from different tables or passages of the source. Starred links: 1 amine or outer side, 2 acyl side, 3 side chain; linkers in the order of their positions; H or OH if unused. Non-standard residues stand in square brackets, D forms with d. Residues, ends and D or L forms follow the SMILES beside them. *: point of attachment. X4 = Cc1cc(F)cc(-c2cnc(NCCNC(=O)CCOCCOCCOCCOCCC(=O)*)c(-c3nc4ccc(Cl)cc4[nH]3)c2N2CCC(N)CC2)c1; X1 = Cc1cc(F)cc(-c2cnc(NCCNC(=O)CCOCCC(=O)*)c(-c3nc4ccc(Cl)cc4[nH]3)c2N2CCC(N)CC2)c1; X3 = Cc1cc(F)cc(-c2cnc(NCCN*)c(-c3nc4ccc(Cl)cc4[nH]3)c2N2CCC(N)CC2)c1; Dolaproine = CO[C@@H]([C@@H]1CCCN1)[C@@H](C)C(=O)O; Dil = CC[C@H](C)[C@H](NC)[C@@H](CC(=O)O)OC; PABC = O=C(OCc1ccc(N[*:1])cc1)[*:2]; Glutaryl = O=C(CCCC(=O)[*:2])[*:1]; X2 = C[C@@H](N*)[C@@H](O)c1ccccc1; Cit = NC(=O)NCCC[C@H](N)C(=O)O; NMeV = CN[C@H](C(=O)O)C(C)C; Sar = CNCC(=O)O

Assays:
Format in all cases: cell-based
[1] = biological target: T1, human somatostatin receptor subtype 2 (Homo sapiens, UniProt P30874); assay: Functional cAMP assay for SSTR2 agonists (HTRF) in CHO-K1 cells; conditions: CHO-K1 cells stably expressing human SST2, 20 min
T1 construct: expressed in transfected cells
T1 sequence (P30874 whole entry): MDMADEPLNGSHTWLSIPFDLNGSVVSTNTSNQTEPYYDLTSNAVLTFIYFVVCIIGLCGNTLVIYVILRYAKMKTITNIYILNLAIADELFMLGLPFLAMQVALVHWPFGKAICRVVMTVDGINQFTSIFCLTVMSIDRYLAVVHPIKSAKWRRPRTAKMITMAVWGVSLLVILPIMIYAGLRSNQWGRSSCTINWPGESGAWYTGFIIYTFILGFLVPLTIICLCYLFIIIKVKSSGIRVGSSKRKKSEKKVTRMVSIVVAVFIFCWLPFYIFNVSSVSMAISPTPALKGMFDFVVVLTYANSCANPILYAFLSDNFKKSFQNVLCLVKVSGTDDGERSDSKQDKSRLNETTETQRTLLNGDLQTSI
Outline: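 Agonism scored as loss of NKH477 (1.6 μM)-driven cAMP, with IBMX present, after 20 min, 37° C. exposure of stably transfected CHO-K1 cells to compound dilutions (typically 0-10,000 nM). Lysates read by time-resolved FRET; cAMP interpolated from standard curve and EC50 derived.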

SST2 = biological target: T2, SST2 (Homo sapiens, UniProt P30874); assay: PathHunter CHO-K1 SST2 internalization assay; conditions: PathHunter CHO-K1 SST2, 90 min
T2 construct: host or cells: PathHunter CHO-K1 SST2 cells
T2 sequence (P30874 whole entry): as above
Outline: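 IC50 comes from four-parameter curves on background-corrected duplicates of Beta-Glo luminescence, read after 60 min at room temperature in the dark. Before that, CHO-K1 SST2 internalization cells (48 h post-seeding) received SMDC as eleven threefold dilutions, 10 uM highest final, for 90 min at 37 C.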

[2] = test system: NCI-H524 (ATCC) human small cell lung cancer cells
Outline: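 CellTiter-Glo luminescence after a 2 h SMDC pulse (top dose 1 uM, 2-fold dilutions, 11 points), medium wash, then 70 h recovery. Cells were seeded at 5,000/well and dosed 24 h later. % inhibition vs control gave IC50 via four-parameter fit.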

[3] = 2 h treatment, washout, additional 70 h, read-out: H524 EC50

Structure (SMILES)	EC50 ([1]; read-out: hSST2 cAMP Avg EC50) [nM]	EC50 (SST2; read-out: Internalization EC50) [nM]	EC50 ([2]; 2 h) [nM]	EC50 ([1]; hSST2 cAMP Avg EC50 (nM)) [nM]	EC50 (SST2; Internalization EC50 (nM)) [nM]	EC50 [2, 3] [nM]
CC[C@H](C)[C@@H]([C@@H](CC(=O)N1CCC[C@H]1[C@H](OC)[C@@H](C)C(=O)N[C@H](C)[C@@H](O)c1ccccc1)OC)N(C)C(=O)[C@@H](NC(=O)[C@H](C(C)C)N(C)C(=O)OCc1ccc(NC(=O)[C@H](C)NC(=O)[C@@H](NC(=O)CCOCCNCCC(=O)NCCNc2ncc(-c3cc(C)cc(F)c3)c(N3CCC(N)CC3)c2-c2nc3ccc(Cl)cc3[nH]2)C(C)C)c(O[C@@H]2O[C@H](C(=O)O)[C@@H](O)[C@H](O)[C@H]2O)c1)C(C)C [Compound 156]	0.24	25	76			
CC[C@H](C)[C@@H]([C@@H](CC(=O)N1CCC[C@H]1[C@H](OC)[C@@H](C)C(=O)N[C@H](C)[C@@H](O)c1ccccc1)OC)N(C)C(=O)[C@@H](NC(=O)[C@H](C(C)C)N(C)C(=O)OCc1ccc(NC(=O)[C@H](CCCNC(N)=O)NC(=O)[C@@H](NC(=O)CCOCCC(=O)NCCNc2ncc(-c3cc(C)cc(F)c3)c(N3CCC(N)CC3)c2-c2nc3ccc(Cl)cc3[nH]2)C(C)C)cc1C(N)=O)C(C)C [Compound 122]	0.18	3.8	7.9			
CC[C@H](C)[C@@H]([C@@H](CC(=O)N1CCC[C@H]1[C@H](OC)[C@@H](C)C(=O)N[C@H](C)[C@@H](O)c1ccccc1)OC)N(C)C(=O)[C@@H](NC(=O)[C@H](C(C)C)N(C)C(=O)OCc1ccc(NC(=O)[C@H](CCCNC(N)=O)NC(=O)[C@@H](NC(=O)CCCC(=O)N(C)CC(=O)NCCNc2ncc(-c3cc(C)cc(F)c3)c(N3CCC(N)CC3)c2-c2nc3ccc(Cl)cc3[nH]2)C(C)C)cc1)C(C)C [Compound 95] ({X3-Sar-Glutaryl}-V[Cit][PABC][NMeV]V[Dil][Dolaproine]-X2)	0.26	2.2	5.1			
CC[C@H](C)[C@@H]([C@@H](CC(=O)N1CCC[C@H]1[C@H](OC)[C@@H](C)C(=O)N[C@H](C)[C@@H](O)c1ccccc1)OC)N(C)C(=O)[C@@H](NC(=O)[C@H](C(C)C)N(C)C(=O)OCc1ccc(NC(=O)[C@H](CCCNC(N)=O)NC(=O)[C@@H](NC(=O)CN2CCN(CC(=O)O)CCN(CC(=O)NCCNc3ncc(-c4cc(C)cc(F)c4)c(N4CCC(N)CC4)c3-c3nc4ccc(Cl)cc4[nH]3)CC2)C(C)C)cc1)C(C)C [Compound 33]	0.63	34.9	274			
CC[C@H](C)[C@@H]([C@@H](CC(=O)N1CCC[C@H]1[C@H](OC)[C@@H](C)C(=O)N[C@H](C)[C@@H](O)c1ccccc1)OC)N(C)C(=O)[C@@H](NC(=O)[C@H](C(C)C)N(C)C(=O)OCc1ccc(NC(=O)[C@H](CCCNC(N)=O)NC(=O)[C@@H](NC(=O)CN2CCN(CC(=O)NCCOCCOCCOCCOCCC(=O)NCCNc3ncc(-c4cc(C)cc(F)c4)c(N4CCC(N)CC4)c3-c3nc4ccc(Cl)cc4[nH]3)CCN(CC(=O)NCCOCCOCCOCCOCCC(=O)NCCNc3ncc(-c4cc(C)cc(F)c4)c(N4CCC(N)CC4)c3-c3nc4ccc(Cl)cc4[nH]3)CC2)C(C)C)cc1)C(C)C [Compound 46]	0.54	26.1	85.9			
CC[C@@]1(O)C(=O)OCc2c1cc1n(c2=O)Cc2c-1nc1cc(F)c(C)c3c1c2[C@@H](NC(=O)OCc1ccc(NC(=O)[C@H](CCCNC(N)=O)NC(=O)[C@@H](NC(=O)CCOCCC(=O)NCCNc2ncc(-c4cc(C)cc(F)c4)c(N4CCC(N)CC4)c2-c2nc4ccc(Cl)cc4[nH]2)C(C)C)cc1)CC3 [Compound 88]				0.3	1.3	55
COc1cc2cc(c1Cl)N(C)C(=O)CC(OC(=O)[C@@H](C)N(C)C(=O)CCS[C@@H]1CC(=O)N(CC3CCC(C(=O)NCCCC[C@H](N)C(=O)NCCNc4ncc(-c5cc(C)cc(F)c5)c(N5CCC(N)CC5)c4-c4nc5ccc(Cl)cc5[nH]4)CC3)C1=O)[C@]1(C)OC1[C@@H](C)C1C[C@@](O)(NC(=O)O1)[C@H](OC)/C=C/C=C(\C)C2 (stereo partly drawn) [Compound 8]	0.12	23.6	447			
CC[C@H](C)[C@@H]([C@@H](CC(=O)N1CCC[C@H]1[C@H](OC)[C@@H](C)C(=O)N[C@H](C)[C@@H](O)c1ccccc1)OC)N(C)C(=O)[C@@H](NC(=O)[C@H](C(C)C)N(C)C(=O)OCc1ccc(O[C@@H]2O[C@H](C(=O)O)[C@@H](O)[C@H](O)[C@H]2O)c(NC(=O)[C@H](CCCNC(N)=O)NC(=O)[C@@H](NC(=O)CCOCCC(=O)NCCNc2ncc(-c3cc(C)cc(F)c3)c(N3CCC(N)CC3)c2-c2nc3ccc(Cl)cc3[nH]2)C(C)C)c1)C(C)C [Compound 147]	0.14	2.5	3.2			
CC[C@H](C)[C@@H]([C@@H](CC(=O)N1CCC[C@H]1[C@H](OC)[C@@H](C)C(=O)N[C@H](C)[C@@H](O)c1ccccc1)OC)N(C)C(=O)[C@@H](NC(=O)[C@H](C(C)C)N(C)C(=O)OCc1ccc(NC(=O)[C@H](CCCNC(N)=O)NC(=O)[C@@H](NC(=O)CCOCCNCCNc2ncc(-c3cc(C)cc(F)c3)c(N3CCC(N)CC3)c2-c2nc3ccc(Cl)cc3[nH]2)C(C)C)c(O[C@@H]2O[C@H](C(=O)O)[C@@H](O)[C@H](O)[C@H]2O)c1)C(C)C [Compound 128]	0.18	8.7	31			
CC[C@H](C)[C@@H]([C@@H](CC(=O)N1CCC[C@H]1[C@H](OC)[C@@H](C)C(=O)N[C@H](C)[C@@H](O)c1ccccc1)OC)N(C)C(=O)[C@@H](NC(=O)[C@H](C(C)C)N(C)C(=O)OCc1ccc(NC(=O)[C@H](CCCNC(N)=O)NC(=O)[C@@H](NC(=O)[C@H](CCC(=O)O)NC(=O)CCOCCC(=O)NCCNc2ncc(-c3cc(C)cc(F)c3)c(N3CCC(N)CC3)c2-c2nc3ccc(Cl)cc3[nH]2)C(C)C)cc1)C(C)C [Compound 36] (X1-EV[Cit][PABC][NMeV]V[Dil][Dolaproine]-X2)	0.25	12.9	44.1			
CC[C@H](C)[C@@H]([C@@H](CC(=O)N1CCC[C@H]1[C@H](OC)[C@@H](C)C(=O)N[C@H](C)[C@@H](O)c1ccccc1)OC)N(C)C(=O)[C@@H](NC(=O)[C@H](C(C)C)N(C)C(=O)OCc1ccc(NC(=O)[C@H](CCCNC(N)=O)NC(=O)[C@@H](NC(=O)[C@H](CCC(=O)O)NC(=O)CCOCCC(=O)NCCNc2ncc(-c3cc(C)cc(F)c3)c(N3CCC(N)CC3)c2-c2nc3ccc(Cl)cc3[nH]2)C(C)C)c(O[C@@H]2O[C@H](C(=O)O)[C@@H](O)[C@H](O)[C@H]2O)c1)C(C)C [Compound 143]	0.14	3	100			
CC[C@H](C)[C@@H]([C@@H](CC(=O)N1CCC[C@H]1[C@H](OC)[C@@H](C)C(=O)N[C@H](C)[C@@H](O)c1ccccc1)OC)N(C)C(=O)[C@@H](NC(=O)[C@H](C(C)C)N(C)C(=O)OCc1ccc(NC(=O)[C@H](CCCNC(N)=O)NC(=O)[C@@H](NC(=O)[C@H](CCC(=O)O)NC(=O)[C@H](CCC(=O)O)NC(=O)CCOCCOCCOCCOCCC(=O)NCCNc2ncc(-c3cc(C)cc(F)c3)c(N3CCC(N)CC3)c2-c2nc3ccc(Cl)cc3[nH]2)C(C)C)cc1)C(C)C [Compound 110] (X4-EEV[Cit][PABC][NMeV]V[Dil][Dolaproine]-X2)	0.57	13	110			
CC[C@@]1(O)C(=O)OCc2c1cc1n(c2=O)Cc2c-1nc1cc(F)c(C)c3c1c2[C@@H](NC(=O)OCc1ccc(NC(=O)[C@H](CCCNC(N)=O)NC(=O)[C@@H](NC(=O)CN2CCN(CC(=O)O)CCN(CC(=O)NCCOCCOCCOCCOCCC(=O)NCCNc4ncc(-c5cc(C)cc(F)c5)c(N5CCC(N)CC5)c4-c4nc5ccc(Cl)cc5[nH]4)CC2)C(C)C)cc1)CC3 [Compound 93]				0.48	4.5	130
CC[C@H](C)[C@@H]([C@@H](CC(=O)N1CCC[C@H]1[C@H](OC)[C@@H](C)C(=O)N[C@H](C)[C@@H](O)c1ccccc1)OC)N(C)C(=O)[C@@H](NC(=O)[C@H](C(C)C)N(C)C(=O)OCc1ccc(NC(=O)[C@H](CCCNC(N)=O)NC(=O)[C@@H](NC(=O)CCOCCOCCOCCOCCNCCNc2ncc(-c3cc(C)cc(F)c3)c(N3CCC(N)CC3)c2-c2nc3ccc(Cl)cc3[nH]2)C(C)C)c(O[C@@H]2O[C@H](C(=O)O)[C@@H](O)[C@H](O)[C@H]2O)c1)C(C)C [Compound 129]	0.34	21	290			
CC[C@H](C)[C@@H]([C@@H](CC(=O)N1CCC[C@H]1[C@H](OC)[C@@H](C)C(=O)N[C@H](C)[C@@H](O)c1ccccc1)OC)N(C)C(=O)[C@@H](NC(=O)[C@H](C(C)C)N(C)C(=O)OCc1ccc(NC(=O)[C@H](CCCNC(N)=O)NC(=O)[C@@H](NC(=O)[C@H](CCC(=O)O)NC(=O)CCOCCOCCOCCOCCC(=O)NCCNc2ncc(-c3cc(C)cc(F)c3)c(N3CCC(N)CC3)c2-c2nc3ccc(Cl)cc3[nH]2)C(C)C)cc1C(=O)NC)C(C)C [Compound 53]	0.16	13	100			
